In article PMC10815991, “Membrane-Bound Redox Enzyme Cytochrome bd-I Promotes Carbon Monoxide-Resistant Escherichia coli Growth and Respiration” (International Journal of Molecular Sciences, 2024):
Where two headings read alike, the source gives them in different places.

Assays:
[1] = target: T1, cytochrome bo3 (bo3-only E. coli cells) (Escherichia coli, UniProt P0ABI8); parameters: method as in PMID 38188931; conditions: [O2] = 150 μM; cited from earlier work
T1 construct: the oxidases were in vivo conditions, i.e., integrated into native bacterial membranes; endogenous in cells; host or cells: E. coli TBE025 (MG1655 ΔcydB nuoB appB::kan); whole cells (A3) or membranes isolated from them (A7)
T1 sequence (P0ABI8 whole entry): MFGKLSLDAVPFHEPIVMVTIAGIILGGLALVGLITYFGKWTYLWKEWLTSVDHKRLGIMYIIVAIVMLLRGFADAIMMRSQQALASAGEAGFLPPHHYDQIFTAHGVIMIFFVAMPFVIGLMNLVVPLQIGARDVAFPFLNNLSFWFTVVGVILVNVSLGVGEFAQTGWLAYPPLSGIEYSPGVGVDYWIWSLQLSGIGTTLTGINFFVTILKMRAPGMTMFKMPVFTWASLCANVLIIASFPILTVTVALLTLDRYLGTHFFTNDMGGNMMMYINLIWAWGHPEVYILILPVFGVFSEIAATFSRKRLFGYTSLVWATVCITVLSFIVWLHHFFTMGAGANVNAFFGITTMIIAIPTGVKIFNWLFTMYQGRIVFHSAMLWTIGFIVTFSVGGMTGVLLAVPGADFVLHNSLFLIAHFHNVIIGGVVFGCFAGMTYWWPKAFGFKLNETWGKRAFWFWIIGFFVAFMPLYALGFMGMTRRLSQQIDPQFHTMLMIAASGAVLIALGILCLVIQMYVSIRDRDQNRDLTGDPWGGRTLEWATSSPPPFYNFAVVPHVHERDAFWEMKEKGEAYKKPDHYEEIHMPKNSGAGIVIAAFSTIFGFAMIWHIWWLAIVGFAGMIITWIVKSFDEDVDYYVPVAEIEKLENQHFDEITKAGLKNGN
T1 sequence (P0ABJ1 25-315 partner): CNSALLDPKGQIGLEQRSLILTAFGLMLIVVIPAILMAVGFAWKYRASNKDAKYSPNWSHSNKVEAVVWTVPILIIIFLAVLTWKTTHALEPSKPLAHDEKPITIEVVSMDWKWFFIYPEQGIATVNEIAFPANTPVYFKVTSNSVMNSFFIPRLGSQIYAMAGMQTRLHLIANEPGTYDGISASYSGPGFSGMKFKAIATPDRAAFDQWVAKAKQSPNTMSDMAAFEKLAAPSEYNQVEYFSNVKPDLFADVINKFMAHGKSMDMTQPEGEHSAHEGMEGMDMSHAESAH
T1 sequence (P0ABJ3 whole entry partner): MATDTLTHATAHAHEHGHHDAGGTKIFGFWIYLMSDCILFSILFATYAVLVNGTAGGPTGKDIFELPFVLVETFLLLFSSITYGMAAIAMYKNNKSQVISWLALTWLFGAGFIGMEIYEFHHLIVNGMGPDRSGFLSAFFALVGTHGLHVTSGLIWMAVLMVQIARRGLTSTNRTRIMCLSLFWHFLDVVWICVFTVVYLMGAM
T1 sequence (P0ABJ6 whole entry partner): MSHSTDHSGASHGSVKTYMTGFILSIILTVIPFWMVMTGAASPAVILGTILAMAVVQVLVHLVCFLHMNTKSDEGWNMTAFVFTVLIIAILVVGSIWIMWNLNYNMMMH

[2] = test system: E. coli mutant strain expressing cytochrome bd-II as the sole terminal oxidase; test: Cell growth (OD600) of bd-II-only strain in presence of CO; type: cell-based, Escherichia coli; conditions: ~20% CO added at 60 min after start of growth in air, vs ~20% N2 control
Description: (§1) The CO and N2 gases were purchased from Linde (Danbury, CT, USA) and Air Liquide (Air Liquide Italia Spa, Milano, Italy), respectively. Other chemicals were purchased from Merck KGaA (Darmstadt, Germany). A stock solution of CO or N2 was prepared by equilibrating degassed water with the pure gas at 1 atm and room temperature, yielding 1 mM CO and 0.7 mM N2 in solution. E. coli respiratory mutant strains TBE025 (MG1655 ΔcydB nuoB appB::kan), TBE026 (MG1655 ΔcydB nuoB cyoB::kan), and TBE037 (MG1655 ΔappB nuoB cyoB::kan), which respectively express cytochrome bo3, cytochrome bd-II, or cytochrome bd-I as the sole terminal oxidase, were used. […] The gas percentage was assessed by taking into account the different O2 concentrations, present in equal volumes of LB equilibrated with air or flushed with CO/N2 for 30 s, and calculated according to the following equation: Gas % = ([O2] air equilibrated − [O2] gas flushed)/[O2] air equilibrated × 100. [O2] air equilibrated and [O2] gas flushed are the O2 concentration values measured in the degassed chamber of a high-resolution respirometer (Oxygraph-2k, Oroboros Instruments GmbH, Innsbruck, Austria) of non-fluxed and fluxed E. coli cultures with CO or N2, respectively. The growth of the E. coli cultures was then monitored via a standard method using optical density measurements in an Eppendorf BioSpectrometer basic at 600 nm every 30 min. […]

[3] = target: T2, cytochrome bd-I (bd-I-only E. coli cells) (Escherichia coli, UniProt P0ABJ9); test: O2 consumption (aerobic respiration) of bd-I-only E. coli cell suspensions; type: cell-based
T2 construct: the oxidases were in vivo conditions, i.e., integrated into native bacterial membranes; endogenous in cells; host or cells: E. coli TBE037 (MG1655 ΔappB nuoB cyoB::kan); whole cells (A1) or membranes isolated from them (A5)
T2 sequence (P0ABJ9 whole entry): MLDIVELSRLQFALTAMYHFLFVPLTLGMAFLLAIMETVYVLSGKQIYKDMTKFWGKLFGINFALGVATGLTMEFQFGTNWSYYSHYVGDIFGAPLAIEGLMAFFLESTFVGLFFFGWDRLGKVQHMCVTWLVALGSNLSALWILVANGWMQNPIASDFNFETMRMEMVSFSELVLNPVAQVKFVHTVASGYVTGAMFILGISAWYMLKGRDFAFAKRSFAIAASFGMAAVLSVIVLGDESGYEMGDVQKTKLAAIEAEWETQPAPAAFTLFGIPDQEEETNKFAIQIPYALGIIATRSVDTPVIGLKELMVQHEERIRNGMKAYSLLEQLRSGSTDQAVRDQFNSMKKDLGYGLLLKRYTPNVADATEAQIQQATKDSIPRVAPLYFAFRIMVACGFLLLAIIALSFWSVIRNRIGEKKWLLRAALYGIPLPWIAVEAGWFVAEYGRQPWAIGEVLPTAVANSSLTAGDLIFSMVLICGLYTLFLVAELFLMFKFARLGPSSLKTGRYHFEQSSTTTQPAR
T2 sequence (P0ABK2 whole entry partner): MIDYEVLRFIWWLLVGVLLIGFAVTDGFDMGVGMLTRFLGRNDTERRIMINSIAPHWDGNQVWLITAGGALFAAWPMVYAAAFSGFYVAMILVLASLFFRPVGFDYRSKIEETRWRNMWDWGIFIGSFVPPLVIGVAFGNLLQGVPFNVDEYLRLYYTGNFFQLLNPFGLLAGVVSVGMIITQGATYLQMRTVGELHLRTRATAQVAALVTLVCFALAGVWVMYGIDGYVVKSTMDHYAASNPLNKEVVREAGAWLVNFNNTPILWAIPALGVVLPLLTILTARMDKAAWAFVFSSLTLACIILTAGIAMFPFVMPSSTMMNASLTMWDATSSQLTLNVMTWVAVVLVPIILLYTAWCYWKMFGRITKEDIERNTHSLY
T2 sequence (P56100 whole entry partner): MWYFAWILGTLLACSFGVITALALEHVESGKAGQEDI
T2 sequence (A5A618 whole entry partner): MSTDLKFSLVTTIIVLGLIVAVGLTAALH
Description: (§2) The CO and N2 gases were purchased from Linde (Danbury, CT, USA) and Air Liquide (Air Liquide Italia Spa, Milano, Italy), respectively. Other chemicals were purchased from Merck KGaA (Darmstadt, Germany). A stock solution of CO or N2 was prepared by equilibrating degassed water with the pure gas at 1 atm and room temperature, yielding 1 mM CO and 0.7 mM N2 in solution. E. coli respiratory mutant strains TBE025 (MG1655 ΔcydB nuoB appB::kan), TBE026 (MG1655 ΔcydB nuoB cyoB::kan), and TBE037 (MG1655 ΔappB nuoB cyoB::kan), which respectively express cytochrome bo3, cytochrome bd-II, or cytochrome bd-I as the sole terminal oxidase, were used. E. coli cultures were grown in Luria–Bertani (LB) medium supplemented with 30 μg/mL kanamycin, at 37 °C and 200 rpm. In the case of growth studies, after inoculation at an OD600 of 0.15 ± 0.03, the cells were grown in 50 mL rubber-stoppered flasks in 16 mL of air-equilibrated LB at 37 °C for 60 min; when OD600 reached 0.4 ± 0.08, they were bubbled for 30 s with either CO (pure gas at 1 atm and room temperature) or N2 (pure gas at 1 atm and room temperature) as a control to yield a final concentration of both gases of ~20%. The gas percentage was assessed by taking into account the different O2 concentrations, present in equal volumes of LB equilibrated with air or flushed with CO/N2 for 30 s, and calculated according to the following equation: Gas % = ([O2] air equilibrated − [O2] gas flushed)/[O2] air equilibrated × 100. [O2] air equilibrated and [O2] gas flushed are the O2 concentration values measured in the degassed chamber of a high-resolution respirometer (Oxygraph-2k, Oroboros Instruments GmbH, Innsbruck, Austria) of non-fluxed and fluxed E. coli cultures with CO or N2, respectively. The growth of the E. coli cultures was then monitored via a standard method using optical density measurements in an Eppendorf BioSpectrometer basic at 600 nm every 30 min. When the OD600 was above 1, cultures were diluted before reading.
Oxygraphic measurements were performed at 25 °C in 50 mM K/phosphate pH 7.0, using a high-resolution respirometer (Oxygraph-2k, Oroboros Instruments GmbH, Innsbruck, Austria) equipped with two 1.5-mL chambers. […] In the case of isolated membranes, O2 consumption was measured in the presence of 2.5 mM dithiothreitol (DTT) and 2.5 μM 2,3-dimethoxy-5-methyl-6-(3-methyl-2-butenyl)-1,4-benzoquinone (Q1), an artificial reducing couple specific for quinol oxidases. The catalytic O2-consuming activity was obtained by subtracting the non-enzymatic O2 consumption (Q1/DTT autoxidation in the absence of the membranes) from the O2 consumption rate measured after the addition of membranes.
UV–visible absorption spectra were recorded to estimate the amount of each terminal oxidase present in cell suspensions. […]

[4] = test system: terminal oxidase operons cyoABCDE, cydABX, appCBX; parameters: method as in PMID 26907100; conditions: wild-type E. coli exposed to CO gas, cited from earlier work
[5] = target: T3, cytochrome bd-II (bd-II-only E. coli cells) (Escherichia coli, UniProt P26459); parameters: method as in PMID 37515940; conditions: [O2] = 150 μM; cited from earlier work
T3 construct: the oxidases were in vivo conditions, i.e., integrated into native bacterial membranes; endogenous in cells; host or cells: E. coli TBE026 (MG1655 ΔcydB nuoB cyoB::kan); whole cells (A2) or membranes isolated from them (A6)
T3 sequence (P26459 whole entry): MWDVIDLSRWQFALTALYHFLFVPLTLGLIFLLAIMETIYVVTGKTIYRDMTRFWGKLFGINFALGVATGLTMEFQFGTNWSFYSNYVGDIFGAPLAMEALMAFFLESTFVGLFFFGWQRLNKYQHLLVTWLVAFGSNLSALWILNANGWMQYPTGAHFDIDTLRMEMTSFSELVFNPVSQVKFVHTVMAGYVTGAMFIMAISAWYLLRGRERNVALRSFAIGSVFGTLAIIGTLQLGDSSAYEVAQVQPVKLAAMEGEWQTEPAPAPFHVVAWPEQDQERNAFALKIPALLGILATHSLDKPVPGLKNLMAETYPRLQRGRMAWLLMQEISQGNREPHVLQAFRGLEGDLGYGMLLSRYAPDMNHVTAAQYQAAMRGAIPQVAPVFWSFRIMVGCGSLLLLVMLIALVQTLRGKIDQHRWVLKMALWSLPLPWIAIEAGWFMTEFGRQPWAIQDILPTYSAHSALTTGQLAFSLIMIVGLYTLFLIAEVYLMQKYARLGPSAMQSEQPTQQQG
T3 sequence (P26458 whole entry partner): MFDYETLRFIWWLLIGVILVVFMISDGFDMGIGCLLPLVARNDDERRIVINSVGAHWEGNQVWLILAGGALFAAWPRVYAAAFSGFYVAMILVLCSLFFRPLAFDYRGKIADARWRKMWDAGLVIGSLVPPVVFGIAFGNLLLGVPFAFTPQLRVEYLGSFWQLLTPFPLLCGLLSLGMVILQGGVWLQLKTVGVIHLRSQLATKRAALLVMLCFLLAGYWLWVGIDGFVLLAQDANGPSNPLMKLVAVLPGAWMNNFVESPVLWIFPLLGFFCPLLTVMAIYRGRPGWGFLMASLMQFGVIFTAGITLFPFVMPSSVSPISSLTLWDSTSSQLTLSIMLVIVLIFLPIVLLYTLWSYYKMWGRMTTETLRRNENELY
T3 sequence (P24244 whole entry partner): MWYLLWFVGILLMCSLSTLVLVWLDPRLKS

[6] = target: T4, cytochrome bd-II (bd-II-only E. coli membranes) (Escherichia coli, UniProt P26459); test: O2 reductase activity of isolated bd-II-containing membranes; type: biochemical
T4 construct: the oxidases were in vivo conditions, i.e., integrated into native bacterial membranes; endogenous in cells; host or cells: E. coli TBE026 (MG1655 ΔcydB nuoB cyoB::kan); whole cells (A2) or membranes isolated from them (A6)
T4 sequence (P26459 whole entry): as the sequence (P26459 whole entry) above
T4 sequence (P26458 whole entry partner): as the sequence (P26458 whole entry partner) above
T4 sequence (P24244 whole entry partner): as the sequence (P24244 whole entry partner) above
Description: (§3) To isolate membranes from E. coli respiratory mutants expressing only one terminal quinol oxidase (cytochrome bd-I or cytochrome bd-II or cytochrome bo3), cell cultures were grown in LB medium until an OD600 of about 2 was reached. The cells were then pelleted by centrifugation at 10,000 rpm for 10 min and washed twice in 20 mM TRIS pH 8.3 containing 0.5 mM EDTA and 5 mM MgSO4. The cells were resuspended in the same buffer containing 1 mg/mL lysozyme and incubated for two hours on ice. A spatula tip of DNAse and RNase was then added, and the cells were lysed by sonication. Cell debris was removed by centrifugation at 15,000 rpm for 10 min. Membrane fractions were collected and stored at −80 °C. The protein content was determined using the Bradford method, using the Bradford reagent (Sigma) with bovine serum albumin as standard.
(§4) Oxygraphic measurements were performed at 25 °C in 50 mM K/phosphate pH 7.0, using a high-resolution respirometer (Oxygraph-2k, Oroboros Instruments GmbH, Innsbruck, Austria) equipped with two 1.5-mL chambers. The O2 consumption of E. coli cells was followed with endogenous reductants. In the case of isolated membranes, O2 consumption was measured in the presence of 2.5 mM dithiothreitol (DTT) and 2.5 μM 2,3-dimethoxy-5-methyl-6-(3-methyl-2-butenyl)-1,4-benzoquinone (Q1), an artificial reducing couple specific for quinol oxidases. […]

[7] = test system: E. coli mutant strain expressing cytochrome bd-I as the sole terminal oxidase; test: Cell growth (OD600) of bd-I-only strain in presence of CO; type: cell-based, Escherichia coli; conditions: ~20% CO added at 60 min after start of growth in air, vs ~20% N2 control
Description: as §1

cytochrome bd-I heme d2+ = conditions: fully reduced form of the CO-bound enzyme; cited from earlier work
[8] = target: T5, cytochrome bd-I (bd-I-only E. coli membranes) (Escherichia coli, UniProt P0ABJ9); test: O2 reductase activity of isolated bd-I-containing membranes; type: biochemical
T5 construct: the oxidases were in vivo conditions, i.e., integrated into native bacterial membranes; endogenous in cells; host or cells: E. coli TBE037 (MG1655 ΔappB nuoB cyoB::kan); whole cells (A1) or membranes isolated from them (A5)
T5 sequence (P0ABJ9 whole entry): as the sequence (P0ABJ9 whole entry) above
T5 sequence (P0ABK2 whole entry partner): as the sequence (P0ABK2 whole entry partner) above
T5 sequence (P56100 whole entry partner): as the sequence (P56100 whole entry partner) above
Description: as §3, §4

[9] = test system: E. coli wild-type strain MG1655 cells; test: O2 consumption of wild-type E. coli cell suspensions at high and low OD; type: cell-based, Escherichia coli
[10] = test system: E. coli mutant strain expressing cytochrome bo3 as the sole terminal oxidase; test: Cell growth (OD600) of bo3-only strain in presence of CO; type: cell-based, Escherichia coli; conditions: ~20% CO added at 60 min after start of growth in air, vs ~20% N2 control
Description: as §1

[11] = target: T6, cytochrome bo3 (bo3-only E. coli membranes) (Escherichia coli, UniProt P0ABI8); test: O2 reductase activity of isolated bo3-containing membranes; type: biochemical
T6 construct: the oxidases were in vivo conditions, i.e., integrated into native bacterial membranes; endogenous in cells; host or cells: E. coli TBE025 (MG1655 ΔcydB nuoB appB::kan); whole cells (A3) or membranes isolated from them (A7)
T6 sequence (P0ABI8 whole entry): as the sequence (P0ABI8 whole entry) above
T6 sequence (P0ABJ1 25-315 partner): as the sequence (P0ABJ1 25-315 partner) above
T6 sequence (P0ABJ3 whole entry partner): as the sequence (P0ABJ3 whole entry partner) above
T6 sequence (P0ABJ6 whole entry partner): as the sequence (P0ABJ6 whole entry partner) above
Description: as §3, §4

[12] = target: T3, cytochrome bd-II (bd-II-only E. coli cells); test: O2 consumption (aerobic respiration) of bd-II-only E. coli cell suspensions; type: cell-based; conditions: for IC50: read-out: apparent IC50
Description: as §2
(§5) Oxygraphic measurements were performed at 25 °C in 50 mM K/phosphate pH 7.0, using a high-resolution respirometer (Oxygraph-2k, Oroboros Instruments GmbH, Innsbruck, Austria) equipped with two 1.5-mL chambers. The O2 consumption of E. coli cells was followed with endogenous reductants. In the case of isolated membranes, O2 consumption was measured in the presence of 2.5 mM dithiothreitol (DTT) and 2.5 μM 2,3-dimethoxy-5-methyl-6-(3-methyl-2-butenyl)-1,4-benzoquinone (Q1), an artificial reducing couple specific for quinol oxidases. The catalytic O2-consuming activity was obtained by subtracting the non-enzymatic O2 consumption (Q1/DTT autoxidation in the absence of the membranes) from the O2 consumption rate measured after the addition of membranes.
(§6) UV–visible absorption spectra were recorded to estimate the amount of each terminal oxidase present in cell suspensions. For this purpose, an Agilent Cary 60 UV-Vis or a Varian Cary 300 Bio UV-Visible spectrophotometer was used.
(§7) Data analysis was carried out using software packages Origin v7.0 (OriginLab Corporation, Northampton, MA, USA) and GIM (Scientific Graphic Interactive Management System developed by A.L. Drachev in Lomonosov Moscow State University). The percentage inhibition of O2 consumption of cell suspensions (i%) was calculated using the equation i% = ((V0 − V0,i)/V0)·100, where V0 and V0,i are the initial rates in the absence and in the presence of the inhibitor (CO), respectively. The apparent IC50 values of cytochromes bd-II and bo3 for CO were estimated by plotting i% as a function of CO concentration added ([CO]0). The data were fitted to the standard hyperbolic equation i% = imax%·[CO]0/(IC50 + [CO]0) using a built-in approximation function (‘Hyperbola function’) in ‘Advanced Fitting tool’ in the Origin program. The imax% parameter is a theoretical maximum percent inhibition. […]

[13] = target: T1, cytochrome bo3 (bo3-only E. coli cells); test: O2 consumption (aerobic respiration) of bo3-only E. coli cell suspensions; type: cell-based; conditions: for IC50: read-out: apparent IC50
Description: as §2, §5, §6, §7

[14] = 196.3 μM CO added at [O2] = 50 μM
[15] = 196.3 μM CO added at [O2] = 100 μM
[16] = 196.3 μM CO added at [O2] = 200 μM

For `[C-]#[O+]` [CO, Carbon monoxide], the IC50 [1] is given as 183 ± 13.5 µM, the “effect on cell growth” value [2] is given as “severely impaired” and the “inhibition of O2 consumption” value ([3]; 96.3 μM CO added at [O2] = 100 μM, bd-I-only cells) is given as 11.6 ± 1.1%. The “maximum inhibition percentage of respiration” value (shortened to “maximum inhibition percentage”) [3, 14] was 39.6 ± 4.5%, the “maximum inhibition percentage” value [3, 15] was 18.0 ± 7.8% and the “maximum inhibition percentage” value [3, 16] was 9.7 ± 4.9%. For the same molecule, the “decrease in the expression of the cyoABCDE operon” value ([4]; aerobic conditions) was 5- to 10 fold, the “increase in the expression of the cydABX operon” value ([4]; aerobic conditions) was 4 fold and the “changes in the expression of the appCBX operon” value [4] was “slight”. For the same molecule, the IC50 [5] was 187 ± 11.1 µM, the “CO inhibition of O2 reductase activity of membranes” value [6] was “effectively inhibits” and the “effect on cell growth” value [7] was “a minimal effect on cell growth was observed”. For the same molecule, the “koff, dissociation of CO from the oxidase” value (cytochrome bd-I heme d2+) was 6.0 ± 0.2 s⁻¹, the “CO inhibition of O2 reductase activity of membranes” value [8] was “relatively resistant to inhibition by CO” and the “sensitivity of O2 consumption to CO” value ([9]; wild-type cells harvested at high OD600 (prevalent expression of a bd-type oxidase)) was “low”. For the same molecule, the “sensitivity of O2 consumption to CO” value ([9]; wild-type cells harvested at low OD600 (prevalent expression of cytochrome bo3)) was “high”, the “effect on cell growth” value [10] was “severely impaired” and the “CO inhibition of O2 reductase activity of membranes” value [11] was “effectively inhibits”. For the same molecule, the “inhibition of O2 consumption” value ([12]; 96.3 μM CO added at [O2] = 100 μM, bd-II-only cells) was 43.3 ± 7.6%, the “maximum inhibition percentage” value [12, 14] was 59.3 ± 11.5% and the “maximum inhibition percentage” value [12, 15] was 50.0 ± 3.6%. For the same molecule, the “maximum inhibition percentage” value [12, 16] was 47.0 ± 6.0%, the IC50 ([12]; CO added at [O2] = 50 μM) was 88.6 ± 9.3 µM and the IC50 ([12]; CO added at [O2] = 100 μM) was 170 ± 15 µM. For the same molecule, the IC50 ([12]; CO added at [O2] = 200 μM) was 230 ± 12 µM, the Ki ([12]; estimated from IC50 values at different [O2], assuming competitive inhibition, Km(O2) 2 µM) was 2.5 ± 0.2 µM and the “inhibition of O2 consumption” value ([13]; 96.3 μM CO added at [O2] = 100 μM, bo3-only cells) was 44.3 ± 1.5%. The “maximum inhibition percentage” value [13, 14] was 85.6 ± 3.7%, the “maximum inhibition percentage” value [13, 15] was 65.3 ± 17.2% and the “maximum inhibition percentage” value [13, 16] was 39.7 ± 11.5%. For the same molecule, the IC50 ([13]; CO added at [O2] = 50 μM) was 66.5 ± 10 µM, the IC50 ([13]; CO added at [O2] = 100 μM) was 131 ± 14 µM and the IC50 ([13]; CO added at [O2] = 200 μM) was 330 ± 19.6 µM. It also gave a Ki ([13]; estimated from IC50 values at different [O2], assuming competitive inhibition, Km(O2) 6 µM) of 8.4 ± 0.7 µM.
